Where two headings read alike, the source gives them in different places.
Columns and labels:
[1] = tested on: iNOS; experiment: iNOS activity by nitrite and nitrite/nitrate accumulation in cytomix-stimulated human primary epithelial cells; assay type: cell-based; conditions: for EC50: Homo sapiens, Epithelial cell, 24 h
Protocol: The inducible form of the enzyme NO synthase, iNOS(NOS2), which is known to be expressed during inflammation, is thought to be responsible for increased NO levels of asthmatic patients. Agents known to induce iNOS in human primary epithelial cells, such as interleukin-1β, tumor necrosis factor-α, and interferon-γ (cytomix) are useful in assaying resveratrol for inhibition of iNOS expression and activity, and comparing its effect to steroids.
Human primary epithelial cells are cultured from normal donor tissue. Explant cultures of tissue obtained from normal human lung transplant donors provided human primary epithelial (HPE) cells. The HPE cells were cultured in Ham's F12 nutrient medium containing 5% (v/v) fetal calf serum (FCS), 1 μM hydrocortisone, 5 ng/ml EGF (epithelial growth factor), 10 μg/ml insulin, 10 nM retinoic acid, 0.5 μg/ml transferrin, 2 μg/ml triiodothyronine, 1.5 μg/ml NaHCO3, 100 μg/ml penicillin, 100 μg/ml streptomycin and 0.25 μg/m amphotericin B; the cells were incubated at 37° C. in a humidified atmosphere containing 95% (v/v) air, 5% (v/v) CO2. The HPE cells were cultured for the last 24 hours prior to the experimental treatments under the same conditions except that additive free Ham's F12 media was substituted for the supplemented Ham's F12 media described above.
These cells were stimulated for 24 hours with 50 ng/ml cytomix (interferon-γ) in the absence or presence of resveratrol, or one of glucocorticoids, dexamethasone and budenoside. Activity of iNOS is measured by determination of […] and nitrite/nitrate accumulation. Nitrite was measured by a modification of the method of Misko, et al. (1993) Anal. Biochem. 214:11-16. […] The reaction was stopped by addition of 10 μl of 1.4M NaOH, and fluorescense was measured with a Biolite F1 fluorimeter (Labtech, Uckfield, U.K.) set at: 460 nm emission wavelength, 360 nm excitation wavelength, 40-50% sensitivity. Sample nitrite concentration was calculated by reference to a standard curve of known nitrite concentrations, permitting assay sensitivity to 0.1 μM.

[2] = tested on: Patients with asthma; experiment: Pulmonary resveratrol clinical evaluation in asthma (Example 4); assay type: in vivo, human; conditions: inhaled, 4, 8 or 20 mg/day, about six months
Protocol: Resveratrol is evaluated clinically for efficacy in treating asthma when administered pulmonarily. The methods of the following references are generally used in the evaluation of asthmatic disease: Wohl et al. (2000) N. Engl. J. Med. 343(15):1113-4; Agertoft et al. (2000) N. Engl. J. Med 343(15):1064-9. Patients with asthma are treated once or more per day with inhalator delivered pulmonary administered doses of resveratrol. Patients are divided randomly and blindly into approximately equal groups that receive either 0 (placebo), 4, 8, or 20 mg/day resveratrol in inhaled doses of 0, 1, 2, or 5 mg administered 4 times daily for about six months. Patients are medically monitored for clinical symptoms of asthma throughout the study, including frequency and severity of acute asthma attacks. […] In addition exhaled nitric oxide (NO) and carbon monoxide (CO) levels may be measured at more frequent intervals, such as every other week. Forced expiratory volume (FEV) and forced inspiratory volume (FIV) are also evaluated to measure airway patency as a direct measure of clinical morbidity and to determine correlation the histopathologic and other indicators of clinical disease, such as exhaled NO Immunhistopathologic examination of lung tissue biopsy samples taken at the same intervals as the blood samples are also examined for histopathologic evidence of extent and histology of inflammation.

[3] = tested on: CRE dependent transcription; experiment: CRE luciferase reporter in stably transfected A549 cells; assay type: cell-based, human
Protocol: The expression of inflammatory genes was then evaluated in cells transformed with luciferase reporter genes containing sites for transcription factors (Tf, Tfs). The A549 cells were stably transfected by routine methods with luciferase reporters containing the transcription factors NF-κB, TRE (AP-1, TPA responsive element) and CRE (cAMP responsive element). Luciferase activity of cell lysates resuspended in […] cell lysis buffer mixed (40 mml resuspended lysate: 40 mml assay reagent) was measured using the Luciferase Assay System (Promega), with emitted light measured by a Turner DesignsTD-20/20 luminometer (Steptech Instruments Ltd., Stevenage, U.K.)

[4] = tested on: IL-8 release, A549 cells; experiment: IL-8 release (ELISA) in IL-1β stimulated A549 cells; assay type: cell-based; conditions: Homo sapiens, 1 ng/ml IL-1β, read-out: EC50 for inhibition of the release of IL-8
Protocol: The human airway epithelial cell line A549 may be employed to study resveratrol inhibition of the release of IL-8 (interleukin 8) and GM-CSF (granulocyte macrophage-colony stimulating factor) by a 1 ng/ml stimulation with IL-1β (interleukin 1β). A549 cells, BEAS-2B cells and 16HBE-16o^− cells were stimulated with 1 ng/ml levels of IL-1β in the presence of resveratrol.
Cells, including the A549 cells, were cultured in Dulbecco's modified Eagle's medium (DMEM) 10% (v/v) fetal calf serum (FCS), 100 μg/ml penicillin and 100 μg/ml streptomycin. IL-8 release was measured by commercially available ELISA kit (R&D Systems).

For `Oc1ccc(/C=C/c2cc(O)cc(O)c2)cc1` [Resveratrol, 3,5,4′-trihydroxystilbene], the “inhibition of nitrite formation / accumulation in the cell culture media” value ([1]; HPE cells, cytomix 24 hours, steroids at 10^−9 M to 10^−5 M) was “only agent able to inhibit nitrite formation”, the EC50 ([1]; read-out: EC50 for nitrite accumulation) was 3.6 ± 2.9 µM and the EC50 ([1]; read-out: EC50 for nitrite/nitrate accumulation) was 0.88 ± 0.47 µM. The “efficacy in treating asthma” value [2] was “effective for treating asthma”, the “extent of inhibition of CRE dependent transcription” value [3] was 91% and the EC50 ([3]; Homo sapiens, read-out: EC50 for inhibition of CRE dependent transcription) was 30 ± 17 µM. For the same compound, the EC50 [4] was 72 ± 11 µM.

Reference: patent US6878751B1, “Administration of resveratrol to treat inflammatory respiratory disorders” (Imperial College of Science Technology and Medicine, priority 2000, dated 2005)
